{"source": "patent US11931335B2", "about": "“Enhancing autophagy or increasing longevity by administration of urolithins or precursors thereof” (Amazentis SA, priority 2012, dated 2024)", "key": {"[1]": {"system": "C. elegans wild-type Bristol N2", "test": "Lifespan of wild-type C. elegans", "assay_type": "in vivo", "conditions": "for Mean Life Extension (%): Genotype: N2, fed live E. coli (OP50); for median lifespan increased by: FIG. 5; for Lifespan extension compared to control (%): 50 μM UA vs 1% DMSO", "protocol": "C. elegans strains were cultured at 20° C. on nematode growth media (NGM) agar plates seeded with E. coli strain OP50. Strain used was wild-type Bristol N2 provided by the Caenorhabditis Genetics Center (University of Minnesota). All Compounds were dissolved in DMSO. Animals were exposed to compounds from eggs on plates seeded with live OP50 bacteria. Control plates were prepared with the corresponding concentrations of DMSO (0.1%). For lifespan tests, worms were observed using a Nikon SMZ1500 stereomicroscope (Nikon, Melville, NY, USA). […] After 3 days (corresponding to day 0), newly developed 60 to 100 L4 worms were used per condition, scored and transferred to fresh plates every 3 days starting from day 1 (young adult worms). All lifespan experiments were performed at 20° C.\n(§1) Lifespan assays were performed with (A) wild-type (N2), (B) sir-2.1(ok434) mutant, (C) aak-2(ok524), (D) daf-16(mu86), (E) eat-2(ad465) and (F) daf-2(e1370) mutant strains of C. elegans maintained during their full life on plates supplemented with either 50 μM of urolithin A or with a control treatment and seeded with OP50 bacteria. Control plates without urolithin A contained an equivalent concentration of DMSO. Worm lifespan assays were performed at 20° C."}, "aged C57BL/6J mice": {"system": "aged C57BL/6J mice", "test": "Grip test in aged mice", "assay_type": "in vivo, mouse", "conditions": "high fat diet, 50 mg/kg/day, 26 weeks, FIG. 22", "protocol": "To examine the effects of urolithin A treatment on muscle function in aged mammals, 17-month-old C57BL/6J mice were treated with either a high fat rodent diet or a high fat rodent diet containing urolithin A mixed with food to reach a dosing of 50 mg/kg/day delivered to the mice.\nFollowing 26 weeks of treatment with urolithin A, mice were assessed for their neuromuscular function by means of a grip test. Using the grip test, one can measure the forelimb grip strength of mice. Mice were placed on a grid to enable their fore paws grasp the support. To measure the grip strength, mice are pulled backward in the sensor axis until they are no longer able to hold the grid."}, "[2]": {"system": "C. elegans wild type (N2, Bristol)", "test": "Mobility tracking of C. elegans during aging", "assay_type": "in vivo", "conditions": "days 1, 3, 5 and 8 of adulthood; 50 μM; FIG. 12", "protocol": "To examine the effect of urolithins on muscle activity during aging, C. elegans mobility was examined over time. Synchronized populations of wild-type nematodes were prepared by standard methods and cultivated at 20° C. on NGM agar containing E. Coli (OP50) with or without test compounds (ellagic acid (EA), urolithins A (UA), and B (UB)). At Day 0, five plates were prepared, each containing 10 young adult worms. Worms were assayed for mobility at different ages, day 1, 3, 5 and 8 of adulthood. The wild type (N2, Bristol) worm strain was employed for these studies.\nFor C. elegans movement tracking, 45 seconds of video were recorded using a Nikon DS-L2/DS-Fi1 camera and controller setup, attached to both a computer and a standard bright field microscope, tracking an entire plate of 10 worms, with 5 plates per condition. The movement of worms during this time was calculated using an adapted version of the freely-available software Parallel Worm Tracker for MATLAB. The total movement over the 45 second tracking was averaged across all worms for each condition. This experiment was repeated twice with between 40 and 70 worms per condition."}, "[3]": {"system": "Human Aortic Endothelial Cells (HAOEC)", "test": "Autophagy western blot in human aortic endothelial cells", "assay_type": "cell-based", "conditions": "16 hours", "protocol": "Human Aortic Endothelial Cells (HAOEC) are primary endothelial cells isolated from normal human aorta. They were sourced from Cell Applications Inc. (CAI), San Diego, USA and obtained cryopreserved at the second passage from the European Collection of Cell Cultures (ECACC). The cells were thawed and cultured with Endothelial Cell Growth Medium, provided by the ECACC, catalog number 06091509 (CAI No. 211-500), in a 37° C., 5% CO2 humidified incubator; media was changed 24 hours after thawing. Endothelial Cell Growth Medium was changed every other day until the cells reached 80% confluency. Cells were then subcultured into four 6-well dishes and after overnight incubation were treated with different concentrations of urolithin A, 10 μM, 20 μM, and 50 μM, or a DMSO control for a period of 16 hours, 3 wells per treatment. Control cells were treated with DMSO at an equivalent final concentration for the same period and served as the untreated control.\nAt the end of treatment, cells were lysed with RIPA buffer and applied to SDS-PAGE and analyzed by western blot. Protein expression levels were examined for autophagy-related proteins LC3-I and LC3-II (Cell Signaling antibody #4108), and p62 (Cell Signaling antibody #5114). The housekeeping protein, HSP90 (BD Transduction Laboratories antibody #610418) level was measured as a loading control."}, "[4]": {"system": "sir-2.1(ok434) mutant C. elegans", "test": "Lifespan assay, sir-2.1 mutant C. elegans", "assay_type": "in vivo", "protocol": "as §1\nsir-2.1: sir-2.1 encodes the mammalian homolog of the NAD-dependent deacetylase SIRT1 in C. elegans. SIR-2.1/SIRT1 activity is mediated by NAD^+ level and is well described to be involved in longevity regulation in yeast, C. elegans, and Drosophila in response to caloric restriction."}}, "data": [{"smiles": "O=c1oc2cc(O)ccc2c2ccc(O)cc12", "note": "[Urolithin A, urolithin A]", "values": [{"measurement": "Mean Life Extension (%)", "setting": "[1]; dose 10 μM", "value": 27.7, "unit": "%"}, {"measurement": "Mean Life Extension (%)", "setting": "[1]; dose 50 μM", "value": 75, "unit": "%"}, {"measurement": "median lifespan increased by", "setting": "[1]; concentration of 50 µM", "value": 75, "unit": "%"}, {"measurement": "effect on lifespan in C. elegans", "setting": "[1]; concentration of 50 µM, exposed from eggs, FIG. 4", "value": "extended the lifespan"}, {"measurement": "median lifespan increased by", "setting": "[1]; concentration of 10 M", "value": 27.7, "unit": "%"}, {"measurement": "Median lifespan", "setting": "[1]; wild-type (N2), 50 μM UA", "value": 28, "unit": "days"}, {"measurement": "Lifespan extension compared to control (%)", "setting": "[1]; wild-type (N2)", "value": 75, "unit": "%"}, {"measurement": "Lifespan extension compared to control (%)", "setting": "[1]; wild-type (N2), listed as UA", "value": "+75%"}, {"measurement": "forelimb grip strength", "setting": "aged C57BL/6J mice", "value": "greater grip strength"}, {"measurement": "age related mobility decline", "setting": "[2]", "value": "marked ability to reduce muscle function decline"}, {"measurement": "levels of p62", "setting": "[3]; 10 μM, 20 μM, and 50 μM", "value": "decrease"}, {"measurement": "ratio of LC3-II to LC3-I, induction", "setting": "[3]; 50 μM of urolithin A, FIG. 18", "value": "≤ 3", "unit": "fold"}, {"measurement": "Median lifespan", "setting": "[4]; sir-2.1(ok434), 50 μM UA", "value": 23, "unit": "days"}, {"measurement": "Lifespan extension compared to control (%)", "setting": "[4]; sir-2.1(ok434), 50 μM UA vs 1% DMSO", "value": "+9.5%"}, {"measurement": "activity of urolithin A on the extension of median lifespan", "setting": "[4]; sir-2.1 mutant", "value": "completely suppressed"}]}]}
